The text below walks through data of US8912188B2, “Substituted quinoxaline carboxylic acids for the inhibition of PASK” (BioEnergenix, LLC, priority 2011, dated 2014).

Structures are written as SMILES. pIC50: −log10 of the molar value.

For this assay, the target named is T1, PASK (Invitrogen) (Homo sapiens, UniProt Q96RG2).
T1 construct: IC50 Kinase Domain; purchased Invitrogen
Put plainly: PAS Kinase FRET Assay. The conditions noted are these: PAS kinase TR-FRET assay (665 nm/615 nm), 2 hours at 25° C.; read-out: IC50 Kinase Domain. It counts as biochemical. From the text: Biochemical Assay for hPASK Activity
The aim of the FRET assay is to determine the inhibition potential of test compounds on targeted kinase. This assay platform provides a homogenous screening method for measuring kinase activity by quantitating the amount of phospho-substrate in solution following a kinase reaction.
In the presence of kinase and ATP, the Ulight-peptide is phosphorylated and captured by an anti-phospho-substrate antibody, which brings the Eu chelate donor and Ulight acceptor dyes into close proximity.
Titration of kinase at 1 mM ATP was achieved via the following protocol. […] The contents of the plate were incubated at RT for 1 h. The reaction was stopped by adding 5 μl of stop solution to each test well followed by mixing and incubation at RT for 10 minutes. 5 μl of detection mix (detection antibody diluted in detection buffer) was added; the contents of the plate were mixed and then incubated in the dark for 1 hour at RT. […] The results were graphed to calculate the EC50.
Titration of ATP at the EC50 concentration of kinase to determine ATP Km,app. was performed using the following method. […] The contents of the plate were and incubated at RT for 1 h. The reaction was stopped by adding 5 μl of stop solution to each test well followed by mixing and incubation at RT for 10 minutes. […] (detection antibody diluted in detection buffer) was added; the contents of the plate were mixed and then incubated in the dark for 1 hour at RT. […] The results were graphed to calculate the EC50 as the ATP Km,app.
Compound screening was done via the following method. 10 mM stock solution of test compound in DMSO was prepared by dissolving test compound in DMSO at RT for 1 hour, and then sonicating at 100% output for 8 minutes. If compound is not soluble under this condition, it was diluted to 3 mM. Kinase reaction buffer was prepared containing 10 mM MgCl2, 50 mM HEPES, 1 mM EGTA, 0.01% TWEEN-20, 2 mM DTT. […] As a positive control, 2.5 μl of positive compound was added to assay wells, and 2.5 μl of DMSO to assay wells as vehicle control. Kinase solution was prepared in reaction buffer at 2× final assay concentration. Kinase solution (5 μl) was added to each well of the assay plate. The substrate and ATP solution was prepared in kinase reaction buffer at 4× final assay concentration. The kinase reaction was started by adding 2.5 μl of substrate+ATP mix solution to each well of the assay plate. The plate is mixed on a plate shaker; then covered and allowed to react for 2 hours in the dark at 25° C. without shaking. The reaction was stopped by adding 5 μl of stop solution to each test well followed by mixing and incubation at RT for 10 minutes in the dark. 5 μl of detection mix (detection antibody diluted in detection buffer) was added; the contents of the plate were mixed and then incubated in the dark for 1 hour at RT.

T1 sequence (Q96RG2 999-1251 limits assumed): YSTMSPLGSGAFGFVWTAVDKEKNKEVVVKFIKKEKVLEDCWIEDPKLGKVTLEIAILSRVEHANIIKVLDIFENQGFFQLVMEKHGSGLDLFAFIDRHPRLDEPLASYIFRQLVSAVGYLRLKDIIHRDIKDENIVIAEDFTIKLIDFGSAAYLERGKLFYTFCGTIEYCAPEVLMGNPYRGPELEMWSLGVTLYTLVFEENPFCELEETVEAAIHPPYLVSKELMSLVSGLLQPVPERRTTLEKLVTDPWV

In the case of `CCN(CC)c1nc2cc(C(=O)O)ccc2nc1-c1cc2ccccc2o1` [Example 27, 2-(1-Benzofuran-2-yl)-3-(diethylamino)quinoxaline-6-carboxylic acid], the pIC50 was > 5.00.
On to `O=C(O)c1ccc2nc(-c3ccc(F)cc3)c(N3CCC[C@@H]3C(F)(F)F)nc2c1` [Example 101, (R)-2-(4-Fluorophenyl)-3-(2-(trifluoromethyl)pyrrolidin-1-yl)quinoxaline-6-carboxylic acid], for which the pIC50 is > 5.00.
As for `O=C(O)c1ccc2nc(-c3cc4cc(F)ccc4o3)c(N3CCCC3)nc2c1` [Example 62, 2-(5-Fluoro-1-benzofuran-2-yl)-3-(pyrrolidin-1-yl)quinoxaline-6-carboxylic acid], the figure is > 5.00.
Take `C[C@H]1CCCN1c1nc2cc(C(=O)O)ccc2nc1-c1ccoc1` [Example 78, 2-(Furan-3-yl)-3-[(2S)-2-methylpyrrolidin-1-yl]quinoxaline-6-carboxylic acid]: the pIC50 is > 5.00.
Consider `CC(C)(C)Nc1nc2cc(C(=O)O)ccc2nc1-c1ccc(F)cc1` [Example 110, 3-(tert-Butylamino)-2-(4-fluorophenyl)quinoxaline-6-carboxylic acid], for which the pIC50 is > 5.00.
In the case of `CC(C)N(C)c1nc2cc(C(=O)O)ccc2nc1-c1ccc(F)nc1` [Example 13, 2-(6-Fluoropyridin-3-yl)-3-(isopropyl(methyl)amino)quinoxaline-6-carboxylic acid] it was > 5.00; in that of `O=C(O)c1ccc2nc(-c3ccc(F)cc3)c(N3CCCC3)nc2c1` [Example 144, 2-(4-Fluorophenyl)-3-(pyrrolidin-1-yl)quinoxaline-6-carboxylic acid], > 5.00.
For the compound `CN(c1nc2cc(C(=O)O)ccc2nc1-c1ccc2[nH]ncc2c1)C1CC1` [Example 29, 3-(Cyclopropyl(methyl)amino)-2-(1H-indazol-5-yl)quinoxaline-6-carboxylic acid], the pIC50 was > 5.00.
On to `O=C(O)c1ccc2nc(-c3ccc4[nH]ccc4c3)c(N3CCCCC3)nc2c1` [Example 65, 2-(1H-Indol-5-yl)-3-(piperidin-1-yl)quinoxaline-6-carboxylic acid], for which the pIC50 was > 5.00.
In the case of `Cc1cc(F)ccc1-c1nc2ccc(C(=O)O)cc2nc1N(C)C(C)C` [Example 118, 2-(4-Fluoro-2-methylphenyl)-3-(isopropyl(methyl)amino)quinoxaline-6-carboxylic acid] it was > 5.00.
As for `CC(C)N(C)c1nc2cc(C(=O)O)ccc2nc1-c1ccc2scnc2c1` [Example 56, 2-(Benzo[d]thiazol-5-yl)-3-(isopropyl(methyl)amino)quinoxaline-6-carboxylic acid], the pIC50 was > 5.00.
As for `CC(C)N(C)c1nc2cc(C(=O)O)c(F)cc2nc1-c1ccc(F)cc1` [Example 123, 7-Fluoro-2-(4-fluorophenyl)-3-[methyl(propan-2-yl)amino]quinoxaline-6-carboxylic acid], the pIC50 is > 5.00.
Consider `CC(C)N(C)c1nc2cc(C(=O)O)ccc2nc1-c1ccc(NC(=O)OC(C)(C)C)nc1` [Example 10, 2-(6-(tert-Butoxycarbonylamino)pyridin-3-yl)-3-(isopropyl(methyl)amino)quinoxaline-6-carboxylic acid], for which the pIC50 is > 5.00.
`CC(C)N(C)c1nc2cc(C(=O)O)ccc2nc1-c1ccc2ncccc2c1` [Example 46, 3-(Isopropyl(methyl)amino)-2-(quinolin-6-yl)quinoxaline-6-carboxylic acid]: the negative logarithm of the IC50 (pIC50) is > 5.00.
`CN(c1nc2cc(C(=O)O)ccc2nc1-c1ccc(F)cc1)C1CCNCC1` [Example 103, 2-(4-Fluorophenyl)-3-(methyl(piperidin-4-yl)amino)quinoxaline-6-carboxylic acid]: the negative-log IC50 (pIC50) was > 5.00.
As for `C[C@H]1CCCN1c1nc2cc(C(=O)O)c(O)cc2nc1-c1ccc(F)cc1` [Example 132, (S)-2-(4-Fluorophenyl)-7-hydroxy-3-(2-methylpyrrolidin-1-yl)quinoxaline-6-carboxylic acid], the figure is > 5.00; as for `CCCN(CC)c1nc2cc(C(=O)O)ccc2nc1-c1ccc(F)cc1` [Example 139, 3-[Ethyl(propyl)amino]-2-(4-fluorophenyl)quinoxaline-6-carboxylic acid], > 5.00.
In the case of `CC(C)N(C)c1nc2cc(C(=O)O)ccc2nc1-c1ccc2occc2c1` [Example 30, 2-(1-Benzofuran-5-yl)-3-[methyl(propan-2-yl)amino]quinoxaline-6-carboxylic acid], the pIC50 is > 5.00.
In the case of `CN[C@H]1CC[C@H](N(C)c2nc3cc(C(=O)O)ccc3nc2-c2ccc(F)cc2)CC1` [Example 126, 2-(4-Fluorophenyl)-3-(methyl((1r,4r)-4-(methylamino)cyclohexyl)amino)quinoxaline-6-carboxylic acid] it was > 5.00; in that of `CC(C)N(C)c1nc2cc(C(=O)O)ccc2nc1-c1cn[nH]c1` [Example 2, 3-(Isopropyl(methyl)amino)-2-(1H-pyrazol-4-yl)quinoxaline-6-carboxylic acid], > 5.00; in that of `COC[C@H]1CCCN1c1nc2cc(C(=O)O)ccc2nc1-c1ccc2[nH]ccc2c1` [Example 67, 2-(1H-Indol-5-yl)-3-[(2R)-2-(methoxymethyl)pyrrolidin-1-yl]quinoxaline-6-carboxylic acid], > 5.00.
Take `CN(c1nc2cc(C(=O)O)ccc2nc1-c1cc2ccc(F)cc2o1)C1CC1` [Example 49, 3-(Cyclopropyl(methyl)amino)-2-(6-fluorobenzofuran-2-yl)quinoxaline-6-carboxylic acid]: the pIC50 is > 5.00.
Turning to `CC(C)N(C)c1nc2cc(C(=O)O)ccc2nc1-c1ccc(N2CCCC2)nc1` [Example 12, 3-(Isopropyl(methyl)amino)-2-(6-(pyrrolidin-1-yl)pyridin-3-yl)quinoxaline-6-carboxylic acid], the negative-log IC50 (pIC50) is < 5.00.
In the case of `CC(C)N(C)c1nc2cc(C(=O)O)ccc2nc1-c1ccc2nccnc2c1` [Example 60, 3-(isopropyl(methyl)amino)-2,7′-biquinoxaline-6-carboxylic acid], the pIC50 is > 5.00.
For `CC(C)N(C)c1nc2cc(C(=O)O)ccc2nc1-c1occc1-c1ccccc1` [Example 83, 3-[Methyl(propan-2-yl)amino]-2-(3-phenylfuran-2-yl)quinoxaline-6-carboxylic acid], the pIC50 was > 5.00.
For the compound `O=C(O)c1ccc2nc(-c3ccc4[nH]ncc4c3)c(N3CCCCC3)nc2c1` [Example 35, 2-(1H-Indazol-5-yl)-3-(piperidin-1-yl)quinoxaline-6-carboxylic acid], the pIC50 was > 5.00.
With `O=C(O)c1ccc2nc(-c3ccc(F)cc3)c(N3CCN(C(=O)c4ccccc4)CC3)nc2c1` [Example 129, 3-(4-Benzoylpiperazin-1-yl)-2-(4-fluorophenyl)quinoxaline-6-carboxylic acid], the pIC50 is > 5.00.
As for `C[C@H]1CCCN1c1nc2cc(C(=O)O)ccc2nc1-c1nc2ccccc2s1` [Example 59, 2-(1,3-Benzothiazol-2-yl)-3-[(2S)-2-methylpyrrolidin-1-yl]quinoxaline-6-carboxylic acid], the figure is > 5.00; as for `C[C@H]1CNCCN1c1nc2cc(C(=O)O)ccc2nc1-c1ccc(F)cc1` [Example 114, 2-(4-Fluorophenyl)-3-[(2S)-2-methylpiperazin-1-yl]quinoxaline-6-carboxylic acid], > 5.00.
In the case of `CC(C)N(C)c1nc2cc(C(=O)O)ccc2nc1-c1ccc(N)nc1` [Example 16, 2-(6-Aminopyridin-3-yl)-3-(isopropyl(methyl)amino)quinoxaline-6-carboxylic acid] it was > 5.00; in that of `CC(C)N(C)c1nc2cc(C(=O)O)ccc2nc1-c1ccc(-c2ccc(F)cc2)o1` [Example 84, 2-[5-(4-Fluorophenyl)furan-2-yl]-3-[methyl(propan-2-yl)amino]quinoxaline-6-carboxylic acid], > 5.00.
As for `CC(C)N(C)c1nc2cc(C(=O)O)ccc2nc1-c1cnn(C)c1` [Example 90, 3-[Methyl(propan-2-yl)amino]-2-(1-methyl-1H-pyrazol-4-yl)quinoxaline-6-carboxylic acid], the pIC50 was > 5.00.
